In the supplement of paper PMC4862054:

What was measured:
Conditions in all cases: incubation time: 72 h
BT-474 [1] = assay: normalised viability (% of control), CellTiter-Blue; higher = more viable cells (about 100 = DMSO control)
Procedure: (§1)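 DSRT, CellTiter-Blue viability, 72 h incubation. Signal is normalised to DMSO and benzethonium chloride controls. Value is the normalised response at dose 3.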

BT-549 [2] = assay: as above
Procedure: as §1

CAL-120 = assay: as above
Procedure: as §1

CAL-148 = assay: as above
Procedure: as §1

CAL-51 = assay: as above
Procedure: as §1

CAL-85-1 [3] = assay: as above
Procedure: as §1

DU-4475 = assay: as above
Procedure: as §1

HCC1143 = assay: as above
Procedure: as §1

HCC1599 [4] = assay: as above
Procedure: as §1

HCC1937 = assay: as above
Procedure: as §1

HDQ-P1 = assay: as above
Procedure: as §1

Hs578T [5] = assay: as above
Procedure: as §1

MDA-MB-231 [6] = assay: as above
Procedure: as §1

MDA-MB-436 [7] = assay: as above
Procedure: as §1

MDA-MB-453 = assay: as above
Procedure: as §1

MDA-MB-468 [8] = assay: as above
Procedure: as §1

MFM-223 [9] = assay: as above
Procedure: as §1

SK-BR-3 = assay: as above
Procedure: as §1

BT-474 [10] = assay: drug sensitivity score (DSS), CellTiter-Glo (DSS (AUC-based score)); higher = stronger drug effect (viability inhibition or cytotoxicity); extreme values may be limits of the assay
Summary of the method: (§2)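 A drug sensitivity score was derived from the area under each fitted dose-response curve. Breast cancer cells (20 µl suspension) were seeded onto compound in 384-well plates, using 5 concentrations 10-fold apart over a compound-specific 10,000-fold range, and incubated 72 h. Readouts were CellTox Green fluorescence and then CellTiter-Glo luminescence, with every plate normalised to 0.1 % DMSO and a positive kill control.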

CAL-85-1 [11] = assay: as above
Summary of the method: as §2

HCC1599 [12] = assay: as above
Summary of the method: as §2

Hs578T [13] = assay: as above
Summary of the method: as §2

MCF-10A = assay: as above
Summary of the method: as §2

MDA-MB-231 [14] = assay: as above
Summary of the method: as §2

MDA-MB-436 [15] = assay: as above
Summary of the method: as §2

MDA-MB-468 [16] = assay: as above
Summary of the method: as §2

MFM-223 [17] = assay: as above
Summary of the method: as §2

BT-474 [18] = assay: drug sensitivity score (DSS), CellTox Green (DSS (AUC-based score)); higher = stronger drug effect (viability inhibition or cytotoxicity); extreme values may be limits of the assay
Summary of the method: as §2

BT-549 [19] = assay: as above
Summary of the method: as §2

Compound | normalised viability (BT-474 [1]; 100 nM) | normalised viability (BT-549 [2]; 100 nM) | normalised viability (CAL-120; 100 nM) | normalised viability (CAL-148; 10 nM) | normalised viability (CAL-51; 10 nM) | normalised viability (CAL-85-1 [3]; 10 nM) | normalised viability (DU-4475; 10 nM) | normalised viability (HCC1143; 100 nM) | normalised viability (HCC1599 [4]; 100 nM) | drug sensitivity score (BT-474 [10]) | drug sensitivity score (CAL-85-1 [11]) | drug sensitivity score (HCC1599 [12]) | drug sensitivity score (Hs578T [13]) | drug sensitivity score (MCF-10A) | drug sensitivity score (MDA-MB-231 [14]) | drug sensitivity score (MDA-MB-436 [15]) | drug sensitivity score (MDA-MB-468 [16]) | drug sensitivity score (MFM-223 [17]) | drug sensitivity score (BT-474 [18]) | drug sensitivity score (BT-549 [19]) | further results
Cc1ccc(NC(=O)c2ccc(CN3CCN(C)CC3)cc2)cc1Nc1nc(-c2cccnc2)cs1 [Masitinib] | 115% | 88.3% | 82.3% | 89.8% | 100% | 98.1% | 102% | 83% | 109% | 1.81 | 0 | 1.31 | 0 | 0 | 1.26 | 0 | 4.71 | 0.34 | 0 | 0 | normalised viability (HCC1937; 100 nM): 107%; normalised viability (HDQ-P1; 10 nM): 116%; normalised viability (Hs578T [5]; 100 nM): 86.6%; normalised viability (MDA-MB-231 [6]; 100 nM): 88.7%; normalised viability (MDA-MB-436 [7]; 100 nM): 71.6%; normalised viability (MDA-MB-453; 10 nM): 103%; normalised viability (MDA-MB-468 [8]; 100 nM): 103%; normalised viability (MFM-223 [9]; 100 nM): 101%; normalised viability (SK-BR-3; 100 nM): 80.7%
O=C(Nc1cccnc1)N1CCC(Cc2cccc(Oc3ccc(C(F)(F)F)cn3)c2)CC1 [PF-3845] | 116% | 111% | 96.5% | 86.9% | 101% | 92.2% | 104% | 89.9% | 99.6% | 0 | 0.0221 | 1.04 | 0 | 0 | 0 | 0 | 3.47 | 0 | 0 | 0 | normalised viability (HCC1937; 100 nM): 107%; normalised viability (HDQ-P1; 10 nM): 116%; normalised viability (Hs578T [5]; 100 nM): 122%; normalised viability (MDA-MB-231 [6]; 100 nM): 128%; normalised viability (MDA-MB-436 [7]; 100 nM): 113%; normalised viability (MDA-MB-453; 10 nM): 105%; normalised viability (MDA-MB-468 [8]; 100 nM): 102%; normalised viability (MFM-223 [9]; 100 nM): 90.1%; normalised viability (SK-BR-3; 100 nM): 104%
Cc1[nH]c2ccccc2c1CCNCc1ccc(/C=C/C(=O)NO)cc1 [Panobinostat] | – | – | – | – | – | – | – | – | – | 16.6 | 16.5 | 14.7 | 15.1 | 11.1 | 18.2 | 10.2 | 15.2 | 13.2 | 14.6 | 0 | normalised viability (BT-474 [1]; 10 nM): 97.4%; normalised viability (BT-549 [2]; 10 nM): 106%; normalised viability (CAL-120; 10 nM): 59.3%; normalised viability (CAL-148; 1 nM): 102%; normalised viability (CAL-51; 1 nM): 116%; normalised viability (CAL-85-1 [3]; 1 nM): 99.3%; normalised viability (DU-4475; 1 nM): 115%; normalised viability (HCC1143; 10 nM): 86.7%; normalised viability (HCC1599 [4]; 10 nM): 84.7%; normalised viability (HCC1937; 10 nM): 69.7%; normalised viability (HDQ-P1; 1 nM): 102%; normalised viability (Hs578T [5]; 10 nM): 86.8%; normalised viability (MDA-MB-231 [6]; 10 nM): 94.6%; normalised viability (MDA-MB-436 [7]; 10 nM): 96.4%; normalised viability (MDA-MB-453; 1 nM): 110%; normalised viability (MDA-MB-468 [8]; 10 nM): 76.8%; normalised viability (MFM-223 [9]; 10 nM): 101%; normalised viability (SK-BR-3; 10 nM): 52.3%
COCC1(CO)C(=O)C2CCN1CC2 (centres undefined) [Prima-1 Met] | 104% | 79.3% | 91.5% | 90.2% | 93.9% | 91.4% | 99.2% | 74.8% | 122% | 0 | 0 | 0 | 0 | 0 | 0 | 0 | 0 | 0 | 0 | 0 | normalised viability (HCC1937; 100 nM): 118%; normalised viability (HDQ-P1; 10 nM): 91.2%; normalised viability (Hs578T [5]; 100 nM): 82.6%; normalised viability (MDA-MB-231 [6]; 100 nM): 91.3%; normalised viability (MDA-MB-436 [7]; 100 nM): 101%; normalised viability (MDA-MB-453; 10 nM): 106%; normalised viability (MDA-MB-468 [8]; 100 nM): 106%; normalised viability (MFM-223 [9]; 100 nM): 87.6%; normalised viability (SK-BR-3; 100 nM): 94.2%
CNC(=O)c1cc(Oc2ccc(NC(=O)Nc3ccc(Cl)c(C(F)(F)F)c3)c(F)c2)ccn1 [Regorafenib] | 98.3% | 112% | 87.7% | 93.6% | 101% | 97.1% | 104% | 74.6% | 135% | 2.89 | 0 | 1.51 | 3.86 | 4.48 | 0.969 | 1.08 | 1.92 | 6.42 | 0 | 0 | normalised viability (HCC1937; 100 nM): 90.4%; normalised viability (HDQ-P1; 10 nM): 89.6%; normalised viability (Hs578T [5]; 100 nM): 98.4%; normalised viability (MDA-MB-231 [6]; 100 nM): 75.3%; normalised viability (MDA-MB-436 [7]; 100 nM): 121%; normalised viability (MDA-MB-453; 10 nM): 110%; normalised viability (MDA-MB-468 [8]; 100 nM): 107%; normalised viability (MFM-223 [9]; 100 nM): 92.6%; normalised viability (SK-BR-3; 100 nM): 89.3%
CO[C@H]1C[C@@H]2CC[C@@H](C)[C@@](O)(O2)C(=O)C(=O)N2CCCC[C@H]2C(=O)O[C@H]([C@H](C)C[C@@H]2CC[C@@H](OP(C)(C)=O)[C@H](OC)C2)CC(=O)[C@H](C)/C=C(\C)[C@@H](O)[C@@H](OC)C(=O)[C@H](C)C[C@H](C)/C=C/C=C/C=C/1C [Ridaforolimus] | – | – | – | – | – | – | – | – | – | 1.18 | 8.38 | 0 | 9.58 | 0 | 0 | 4.1 | 12.7 | 6.61 | 0 | 0 | normalised viability (BT-474 [1]; 10 nM): 60.7%; normalised viability (BT-549 [2]; 10 nM): 62.4%; normalised viability (CAL-120; 10 nM): 48.2%; normalised viability (CAL-148; 1 nM): 60.1%; normalised viability (CAL-51; 1 nM): 79%; normalised viability (CAL-85-1 [3]; 1 nM): 67.4%; normalised viability (DU-4475; 1 nM): 78.2%; normalised viability (HCC1143; 10 nM): 56.4%; normalised viability (HCC1599 [4]; 10 nM): 91.8%; normalised viability (HCC1937; 10 nM): 58.9%; normalised viability (HDQ-P1; 1 nM): 110%; normalised viability (Hs578T [5]; 10 nM): 50.4%; normalised viability (MDA-MB-231 [6]; 10 nM): 71.9%; normalised viability (MDA-MB-436 [7]; 10 nM): 85.6%; normalised viability (MDA-MB-453; 1 nM): 44.5%; normalised viability (MDA-MB-468 [8]; 10 nM): 61.2%; normalised viability (MFM-223 [9]; 10 nM): 45.2%; normalised viability (SK-BR-3; 10 nM): 48.4%
